From patent US20260234144A1 (TAY THERAPEUTICS LIMITED, priority 2023, published 2026) come the findings set out here.

The experiment concerns R223X stop codon in the mutated luciferase gene, ADXC8 luciferase reporter cell line. Description: cells. In kind it is cell-based. The conditions noted are these: ADXC8 cells, 24 hours; for Emax / EC (100% of 200 uM G418 response): 24 h; for Emax: read-out: Fold Over Control, maximum fold response relative to 200 μM G418; for EC (100% of 200 uM G418 response): read-out: pC100%, negative logarithm of the concentration giving the same response as 200 μM G418.

On to `Cc1cc(C)c2c(N)nc(NCC3CCCN(C)C3)nc2n1` (stereo not drawn) [Example 174], for which the Emax lay in the range of 100 to 3000% and the EC (100% of 200 uM G418 response) lay in the range of 10 to 100 µM.

As to `Cc1nc2nc(NC3CCN(Cc4ccccc4O)CC3)nc(N)c2c2c1CCC2` [Example 537], the Emax was 100 to 3000% and the EC (100% of 200 uM G418 response) was in the range of 0.1 to 1 µM.

For the molecule `CNc1nc(N[C@H]2CNCC23CC3)nc2nc(C)cc(C)c12` [Example 403], the EC (100% of 200 uM G418 response) was 1 to 10 µM.

In the case of `CNc1nc(N[C@@H]2C[C@@H](C)N(C)C2)nc2nc(C)cc(C)c12` [Example 375], the Emax was in the range of 100 to 3000% and the EC (100% of 200 uM G418 response) was in the range of 0.1 to 1 µM.

As to `CNc1nc(N[C@@H]2CCN(C)C2)nc2nc(N(C)C)cc(C)c12` [Example 630], the Emax lay within 100 to 3000% and the EC (100% of 200 uM G418 response) is 10 to 100 µM.

Consider `Cc1c2ccccc2nc2nc(NC3CCN(C)CC3)nc(N)c12` [Example 10, 5-methyl-N^2-(1-methylpiperidin-4-yl)pyrimido[4,5-b]quinoline-2,4-diamine], for which the Emax lay in the range of 100 to 3000% and the EC (100% of 200 uM G418 response) was 1 to 10 µM.

Take `Cc1cc(C)c2c(N)nc(NCCCN3CC4(CCOC4)C3)nc2n1` [Example 187]: the Emax was in the range of 100 to 3000% and the EC (100% of 200 uM G418 response) fell in the range of 10 to 100 µM.

`CNc1nc(NC2C3CNC2C3)nc2nc(C)cc(C)c12` (single isomer, unassigned) [Example 447]: the “Fold Over Control” value (maximum fold response relative to 200 μM G418) is listed as “## (Fold over Ctrl > 1 ≤ 30)”. Moreover, where the note is “negative logarithm of the concentration giving the same response as 200 μM G418”, the pC100% entry was “++ (pC100% > 5.0 ≤ 6.0)”.

Take `CNc1cc(N[C@H]2CN(C)C[C@@H]2OC)nc2nc3c(c(C)c12)CCC3` [Example 421]: the Emax fell in the range of 100 to 3000% and the EC (100% of 200 uM G418 response) lay within 0.1 to 1 µM.

On to `CNc1nc(N[C@H]2CN(C)C[C@H]2OC)nc2nc(C)cc(C)c12` [Example 369], for which the Emax is 100 to 3000% and the EC (100% of 200 uM G418 response) lay in the range of 1 to 10 µM.

For `[2H]C([2H])([2H])N1CCC(Nc2nc(N)c3c(C)cc(C)nc3n2)CC1` [Example 584], the EC (100% of 200 uM G418 response) was in the range of 1 to 10 µM.

Regarding `Cc1nc2nc(NC3CCN(C)CC3)nc(N)c2cc1-c1cnn(C)c1` [Example 677], the Emax was in the range of 0 to 100% and the EC (100% of 200 uM G418 response) was > 100 µM.

For `CNc1nc(N[C@@H]2CCNC2)nc2nc(C)cc(C)c12` [Example 294], the EC (100% of 200 uM G418 response) lay in the range of 0.1 to 1 µM.

As to `COc1cnc2nc(NC3CCN(C)CC3)nc(N)c2c1` [Example 241, 6-methoxy-N^2-(1-methylpiperidin-4-yl)pyrido[2,3-d]pyrimidine-2,4-diamine], the Emax lay within 0 to 100% and the EC (100% of 200 uM G418 response) is > 31.6 µM.

With `Cc1nc2nc(NC3CCN(C)CC3)nc(N)c2c(C)c1C` [Example 121, 5,6,7-trimethyl-N2-(1-methylpiperidin-4-yl)pyrido[2,3-d]pyrimidine-2,4-diamine], the Emax is 100 to 3000% and the EC (100% of 200 uM G418 response) was in the range of 1 to 10 µM.

For the molecule `Cc1cc(-c2ccccc2)nc2nc(N[C@@H]3CCNC3)nc(N)c12` [Example 301], the EC (100% of 200 uM G418 response) was 1 to 10 µM.

As to `CNC(=O)c1ccc(CN2CCC(Nc3nc(N)c4c(C)cc(C)nc4n3)CC2)cc1` [Example 475], the Emax lay in the range of 100 to 3000% and the EC (100% of 200 uM G418 response) was in the range of 10 to 100 µM.

`Cc1cccc(-c2cc(C)c3c(N)nc(NCCCN4CCOCC4)nc3n2)c1` [Example 253, 5-methyl-N2-(3-morpholinopropyl)-7-(m-tolyl)pyrido[2,3-d]pyrimidine-2,4-diamine]: the EC (100% of 200 uM G418 response) was in the range of 1 to 10 µM.

With `CNc1nc(N[C@H]2CN(Cc3ccccc3)C[C@H]2F)nc2nc(C)cc(C)c12` [Example 621], the Emax was in the range of 100 to 3000% and the EC (100% of 200 uM G418 response) was 10 to 100 µM.

As for `Cc1cc(C)c2c(N)nc(NC3CCN(C(C)c4ccccc4)CC3)nc2n1` (single isomer, unassigned) [Example 502], the Emax was 100 to 3000% and the EC (100% of 200 uM G418 response) was in the range of 0.1 to 1 µM.

With `COCCN1CC[C@@H](Nc2nc(N)c3c(C)cc(C)nc3n2)C1` [Example 223, (R)—N^2-(1-(2-methoxyethyl)pyrrolidin-3-yl)-5,7-dimethylpyrido[2,3-d]pyrimidine-2,4-diamine], the Emax was in the range of 100 to 3000% and the EC (100% of 200 uM G418 response) was 10 to 100 µM.

For `CNc1nc(N[C@H]2CN(C)C[C@@H]2OC(C)=O)nc2nc3c(c(C)c12)CCC3` [Example 683, (3S,4S)-1-methyl-4-((5-methyl-4-(methylamino)-7,8-dihydro-6H-cyclopenta[5,6]pyrido[2,3-d]pyrimidin-2-yl)amino)pyrrolidin-3-yl acetate], the Emax lay within 100 to 3000% and the EC (100% of 200 uM G418 response) was 0.1 to 1 µM.

Take `Cc1cc(C)c2c(N)nc(NCC3CCN(C(=O)OC(C)(C)C)CC3)nc2n1` [Example 133]: the Emax lay within 0 to 100% and the EC (100% of 200 uM G418 response) is > 100 µM.

As for `Cc1cc(C)c2c(N)nc(NC3CCCCN(C(=O)OC(C)(C)C)C3)nc2n1` (stereo not drawn) [Example 135], the Emax fell in the range of 0 to 100% and the EC (100% of 200 uM G418 response) is > 100 µM.

Turning to `CNC(=O)c1ccccc1-c1ccc2c(N)nc(NC3CCN(C)CC3)nc2n1` [Example 107], the Emax was in the range of 0 to 100% and the EC (100% of 200 uM G418 response) was > 100 µM.

Take `Cc1cc(C)c2c(N)nc(NCCCN3CCOCC3)nc2n1` [Example 6, 5,7-dimethyl-N^2-(3-morpholinopropyl)pyrido[2,3-d]pyrimidine-2,4-diamine]: the Emax lay within 100 to 3000% and the EC (100% of 200 uM G418 response) was 10 to 100 µM.

Turning to `Cc1cc(C)c2c(N)nc(N[C@H]3CCCC[C@@H]3N(C)C)nc2n1` [Example 155], the Emax was 0 to 100% and the EC (100% of 200 uM G418 response) was > 31.6 µM.

Consider `Cc1cc(C)c2c(N)nc(NC3(CN(C)C)CC3)nc2n1` [Example 219, N^2-(1-((dimethylamino)methyl)cyclopropyl)-5,7-dimethylpyrido[2,3-d]pyrimidine-2,4-diamine], for which the Emax was 0 to 100% and the EC (100% of 200 uM G418 response) is > 31.6 µM.

For `Cc1cc(C)c2c(N)nc(NC3CCN(Cc4c(C)cccc4O)CC3)nc2n1` [Example 538], the Emax is 100 to 3000% and the EC (100% of 200 uM G418 response) is 0.1 to 1 µM.

For `CCNc1nc(N[C@H]2CN(C)C[C@@H]2F)nc2nc(C)cc(C)c12` [Example 393], the Emax lay in the range of 100 to 3000% and the EC (100% of 200 uM G418 response) lay within 1 to 10 µM.

With `CN1CCC(Nc2nc(N)c3ccc(-c4ccccc4S(C)(=O)=O)nc3n2)CC1` [Example 116], the Emax was 0 to 100% and the EC (100% of 200 uM G418 response) was > 100 µM.

Regarding `CNc1nc(NC2CCN(C)CC2)nc2ncccc12` [Example 39, N^4-methyl-N^2-(1-methylpiperidin-4-yl)pyrido[2,3-d]pyrimidine-2,4-diamine], the Emax is 100 to 3000% and the EC (100% of 200 uM G418 response) fell in the range of 10 to 100 µM.

For the molecule `CNc1nc(N[C@H]2C[C@H](C)N(C)C2)nc2nc(C)cc(C)c12` [Example 373], the Emax was 100 to 3000% and the EC (100% of 200 uM G418 response) lay in the range of 1 to 10 µM.

In the case of `Cc1cc(-c2ccccc2)nc2nc(NCCCN3CCOCC3)nc(N)c12` [Example 120, 5-methyl-N2-(3-morpholinopropyl)-7-phenylpyrido[2,3-d]pyrimidine-2,4-diamine], the Emax lay within 100 to 3000% and the EC (100% of 200 uM G418 response) was in the range of 1 to 10 µM.

Turning to `CCNc1nc(N[C@]23C[C@H]2CN(C)C3)nc2nc(C)cc(C)c12` [Example 632], the Emax was in the range of 100 to 3000% and the EC (100% of 200 uM G418 response) was 0.1 to 1 µM.

As to `CC(=O)c1cnc2nc(NC3CCN(C)CC3)nc(N)c2c1` [Example 125, 1-{4-amino-2-[(1-methylpiperidin-4-yl)amino]pyrido[2,3-d]pyrimidin-6-yl}ethenone], the Emax lay within 0 to 100% and the EC (100% of 200 uM G418 response) is > 100 µM.

Turning to `CNc1nc(N[C@@H]2CCNC2)nc2nc3c(c(C)c12)CCC3` [Example 231, (R)—N^4,5-dimethyl-N^2-(pyrrolidin-3-yl)-7,8-dihydro-6H-cyclopenta[5,6]pyrido[2,3-d]pyrimidine-2,4-diamine], the Emax lay within 100 to 3000% and the EC (100% of 200 uM G418 response) lay within 0.1 to 1 µM.

On to `CN1CCC(Nc2nc(N)c3ccc(-c4ncco4)nc3n2)CC1` [Example 119, N^2-(1-methylpiperidin-4-yl)-7-(oxazol-2-yl)pyrido[2,3-d]pyrimidine-2,4-diamine], for which the Emax lay in the range of 100 to 3000% and the EC (100% of 200 uM G418 response) was in the range of 10 to 100 µM.

On to `Cc1cc(C)c2c(N)nc(NC[C@@H]3CCCN3)nc2n1` [Example 182], for which the Emax lay within 0 to 100% and the EC (100% of 200 uM G418 response) is > 31.6 µM.

For the molecule `Cc1cc(C)c2c(N)nc(N[C@H]3CCCCNC3)nc2n1` [Example 312], the Emax was in the range of 100 to 3000% and the EC (100% of 200 uM G418 response) lay in the range of 10 to 100 µM.

For `COCc1cccc(CN2CCC(Nc3nc(N)c4c(C)cc(C)nc4n3)CC2)c1` [Example 464], the Emax was in the range of 100 to 3000% and the EC (100% of 200 uM G418 response) was in the range of 10 to 100 µM.

As to `Cc1cc(C)c2c(N)nc(NC3CC4(CCN(C(=O)OC(C)(C)C)CC4)C3)nc2n1` [Example 132], the Emax lay in the range of 0 to 100% and the EC (100% of 200 uM G418 response) was > 100 µM.

With `Cc1nc2nc(NC3CCN(Cc4ccc(C#N)cc4F)CC3)nc(N)c2c2c1CCC2` [Example 527], the Emax was in the range of 100 to 3000% and the EC (100% of 200 uM G418 response) is 0.1 to 1 µM.

Consider `CN1CCC(Nc2nc(N)c3ccc(-c4ccc(CN)cc4)nc3n2)CC1` [Example 63], for which the Emax is 100 to 3000% and the EC (100% of 200 uM G418 response) fell in the range of 1 to 10 µM.

Take `CNc1nc(NC2CCNCC2)nc2nc(C)cc(C)c12` [Example 588]: the EC (100% of 200 uM G418 response) lay within 0.1 to 1 µM.

Regarding `COC(C)c1ccc2c(N)nc(NC3CCN(C)CC3)nc2n1` (stereo not drawn) [Example 290], the Emax was in the range of 100 to 3000% and the EC (100% of 200 uM G418 response) was 10 to 100 µM.

`Cc1nc2nc(NCCCN3CCOCC3)nc(N)c2c2c1CCC2` [Example 46, 6-methyl-N^3-(3-morpholinopropyl)-8,9-dihydro-7H-cyclopenta[4,5]pyrido[2,3-d]pyrimidine-1,3-diamine]: the EC (100% of 200 uM G418 response) was in the range of 0.1 to 1 µM.
